ChEMBL document CHEMBL1201862, “PubChem BioAssay data set” (2004)
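Where inhibition never reached the appropriate level, the endpoint shown equals the highest concentration tested. Otherwise, values were interpolated linearly from a five-concentration, 48-hour dose response in 96-well plates. The concentration for 50% growth inhibition is given as GI50.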 Calls of active or inactive are those of the source. Cut-off read from the data, not from the text of the source: active = GI50 up to about 1.1 µM and inactive = higher.

Experiments:
Experiment in all cases: growth of human tumour cells (NCI), 48 h
786-0 = system: 786-0
A549 = system: A549
CAKI-1 = system: CAKI-1
HCT-15 = system: HCT-15
HT-29 = system: HT-29
Hs-578T = system: Hs-578T
MCF7 = system: MCF7
MOLT-4 = system: MOLT-4
OVCAR-5 = system: OVCAR-5
OVCAR-8 = system: OVCAR-8
RXF 393 = system: RXF 393
SF-268 = system: SF-268
SF-295 = system: SF-295
SK-MEL-5 = system: SK-MEL-5
SK-OV-3 = system: SK-OV-3
SN12C = system: SN12C
SW-620 = system: SW-620
UACC-62 = system: UACC-62
CCRF-CEM = system: CCRF-CEM

SMILES | GI50 (786-0) | GI50 (A549) | GI50 (CAKI-1) | GI50 (HCT-15) | GI50 (HT-29) | GI50 (Hs-578T) | GI50 (MCF7) | GI50 (MOLT-4) | GI50 (OVCAR-5) | GI50 (OVCAR-8) | GI50 (RXF 393) | GI50 (SF-268) | GI50 (SF-295) | GI50 (SK-MEL-5) | GI50 (SK-OV-3) | GI50 (SN12C) | GI50 (SW-620) | GI50 (UACC-62) | GI50 (CCRF-CEM)
O=S(=O)(O)n1ccnc1 | > 100 µM (inactive) | > 100 µM (inactive) | > 100 µM (inactive) | > 100 µM | > 100 µM (inactive) | > 100 µM (inactive) | > 100 µM (inactive) | > 100 µM (inactive) | > 100 µM (inactive) | > 100 µM (inactive) | > 100 µM (inactive) | > 100 µM (inactive) | > 100 µM (inactive) | > 100 µM (inactive) | > 100 µM (inactive) | > 100 µM (inactive) | > 100 µM (inactive) | > 100 µM (inactive) | –
CCN(CC)CC1CCCCN1CC(=O)N1c2ccccc2NC(=O)CC1C (centres undefined) | > 100 µM (inactive) | > 100 µM (inactive) | > 100 µM (inactive) | > 100 µM | > 100 µM (inactive) | > 100 µM (inactive) | > 100 µM (inactive) | > 100 µM (inactive) | > 100 µM (inactive) | > 100 µM (inactive) | > 100 µM (inactive) | > 100 µM (inactive) | > 100 µM (inactive) | > 100 µM (inactive) | > 100 µM (inactive) | > 100 µM (inactive) | > 100 µM (inactive) | – | > 100 µM (inactive)
O=C(CC(C(=O)c1ccco1)c1ccco1)c1ccco1 (centres undefined) | > 100 µM (inactive) | > 100 µM (inactive) | > 100 µM (inactive) | – | > 100 µM (inactive) | > 100 µM (inactive) | > 100 µM (inactive) | > 100 µM (inactive) | > 100 µM (inactive) | > 100 µM (inactive) | > 100 µM (inactive) | > 100 µM (inactive) | > 100 µM (inactive) | > 100 µM (inactive) | > 100 µM (inactive) | > 100 µM (inactive) | > 100 µM (inactive) | > 100 µM (inactive) | 71.1 µM (inactive)
CC1C2(C)OC(=N)C(C#N)(C(c3ccco3)O2)C1(C#N)C#N (centres undefined) | 20.8 µM (inactive) | > 100 µM (inactive) | 14.4 µM (inactive) | 12.5 µM | 32.8 µM (inactive) | 24.9 µM (inactive) | 22.4 µM (inactive) | 32.2 µM (inactive) | 29.7 µM (inactive) | 39.9 µM (inactive) | 22.6 µM (inactive) | 29 µM (inactive) | > 100 µM (inactive) | 14.9 µM (inactive) | > 100 µM (inactive) | 16.7 µM (inactive) | 16.4 µM (inactive) | 17.7 µM (inactive) | 23.6 µM (inactive)
COc1cccc(/C=N/n2c(C)n[nH]c2=O)c1 | > 100 µM (inactive) | > 100 µM (inactive) | 60.5 µM (inactive) | > 100 µM | > 100 µM (inactive) | 16.8 µM (inactive) | > 100 µM (inactive) | > 100 µM (inactive) | > 100 µM (inactive) | > 100 µM (inactive) | 18.8 µM (inactive) | > 100 µM (inactive) | > 100 µM (inactive) | – | > 100 µM (inactive) | > 100 µM (inactive) | > 100 µM (inactive) | 69.3 µM (inactive) | > 100 µM (inactive)
CC(=O)O/N=C1\C=Cc2c(no[n+]2[O-])C1=O | 19.3 µM (inactive) | 16.1 µM (inactive) | 20.5 µM (inactive) | 19.8 µM | 17.5 µM (inactive) | 20.8 µM (inactive) | 22.5 µM (inactive) | 10.4 µM (inactive) | 18.3 µM (inactive) | 12.3 µM (inactive) | 15.2 µM (inactive) | 20.8 µM (inactive) | > 100 µM (inactive) | 17.5 µM (inactive) | – | 18.5 µM (inactive) | 3.37 µM (inactive) | 16 µM (inactive) | 3.65 µM (inactive)
COC(=O)N/N=C(\c1ccccc1)c1ccc(OC)cc1 | > 100 µM (inactive) | > 100 µM (inactive) | > 100 µM (inactive) | > 100 µM | > 100 µM (inactive) | > 100 µM (inactive) | > 100 µM (inactive) | > 100 µM (inactive) | > 100 µM (inactive) | > 100 µM (inactive) | > 100 µM (inactive) | > 100 µM (inactive) | – | > 100 µM (inactive) | > 100 µM (inactive) | > 100 µM (inactive) | > 100 µM (inactive) | > 100 µM (inactive) | > 100 µM (inactive)
C/C(=N\N=C(\N)OB(F)F)c1ccccn1 | 40.4 µM (inactive) | > 100 µM (inactive) | > 100 µM (inactive) | 93.8 µM | 47.3 µM (inactive) | 28.6 µM (inactive) | 79.4 µM (inactive) | – | > 100 µM (inactive) | 75 µM (inactive) | 9.33 µM (inactive) | > 100 µM (inactive) | 66.8 µM (inactive) | > 100 µM (inactive) | > 10 µM (inactive) | > 100 µM (inactive) | > 100 µM (inactive) | 82.2 µM (inactive) | 43.4 µM (inactive)
CCOC(=O)c1nc2ccc(C(F)(F)F)cc2nc1NCc1cc(OC)c(OC)c(OC)c1 | 41.6 µM (inactive) | 73.3 µM (inactive) | > 100 µM (inactive) | 48.9 µM | 59.6 µM (inactive) | 32.3 µM (inactive) | 66.5 µM (inactive) | 70.8 µM (inactive) | > 100 µM (inactive) | > 100 µM (inactive) | 39.9 µM (inactive) | 61.8 µM (inactive) | > 100 µM (inactive) | 27.7 µM (inactive) | – | > 100 µM (inactive) | 54.1 µM (inactive) | 53.5 µM (inactive) | –
CC1=NN(c2nc(N)nc(-c3ccccc3S(N)(=O)=O)n2)C(C)(C)C1 | 8.79 µM (inactive) | – | 3.37 µM (inactive) | 2.76 µM | 12.1 µM (inactive) | 74.1 µM (inactive) | 22.7 µM (inactive) | 5.19 µM (inactive) | 27.2 µM (inactive) | 16 µM (inactive) | 14 µM (inactive) | 8.24 µM (inactive) | 5.64 µM (inactive) | 18.1 µM (inactive) | 9.02 µM (inactive) | – | 25.8 µM (inactive) | – | 9.42 µM (inactive)
S=C(N/N=C\C=N/NC(=S)N1CCCCC1)N1CCCCC1 | 0.525 µM (active) | 0.107 µM (active) | 0.619 µM (active) | 0.0802 µM | 0.163 µM (active) | 0.879 µM (active) | 0.466 µM (active) | – | > 29.3 µM (inactive) | 0.178 µM (active) | 0.296 µM (active) | 0.231 µM (active) | 0.155 µM (active) | 0.37 µM (active) | 0.692 µM (active) | 0.723 µM (active) | 0.0977 µM (active) | 0.594 µM (active) | –
CCOC(=O)c1[nH]cc(C)c1-c1cccn1-c1ccc(Cl)cc1[N+](=O)[O-] | 18.2 µM (inactive) | 23 µM (inactive) | 31.7 µM (inactive) | 32.1 µM | 16.2 µM (inactive) | 15.8 µM (inactive) | 30.7 µM (inactive) | 17.1 µM (inactive) | 23.2 µM (inactive) | 20.8 µM (inactive) | 13.7 µM (inactive) | 21.1 µM (inactive) | 28.2 µM (inactive) | 14.9 µM (inactive) | – | 24.7 µM (inactive) | 23.1 µM (inactive) | 18.2 µM (inactive) | 25.6 µM (inactive)
CC1(C)[N+]([O-])=[N+]([O-])C1(C)O (centres undefined) | > 100 µM (inactive) | > 100 µM (inactive) | > 100 µM (inactive) | > 100 µM | > 100 µM (inactive) | > 100 µM (inactive) | > 100 µM (inactive) | > 100 µM (inactive) | > 100 µM (inactive) | > 100 µM (inactive) | > 100 µM (inactive) | > 100 µM (inactive) | – | > 100 µM (inactive) | > 100 µM (inactive) | > 100 µM (inactive) | > 100 µM (inactive) | > 100 µM (inactive) | > 100 µM (inactive)
CC(=O)O[C@H]1C[C@H]2[C@@H]([C@H](OC(C)=O)C[C@@H]3CC4(CC[C@@]32C)OOC2(CCCCC2)OO4)[C@@H]2CC[C@H]([C@H](C)CCC(=O)O)[C@@]12C | 11.3 µM (inactive) | 2.66 µM (inactive) | 7.1 µM (inactive) | 4.39 µM | 11.5 µM (inactive) | 2.42 µM (inactive) | 4.65 µM (inactive) | 9.02 µM (inactive) | 10.7 µM (inactive) | 4.08 µM (inactive) | 13.5 µM (inactive) | 6.81 µM (inactive) | 5.93 µM (inactive) | 10.6 µM (inactive) | 13.7 µM (inactive) | 6.81 µM (inactive) | 10.2 µM (inactive) | – | 2.33 µM (inactive)
CCCCCCCC/C=C(\Br)C(O)C(Br)Br (centres undefined) | 18.5 µM (inactive) | 31.4 µM (inactive) | 19.5 µM (inactive) | 20.6 µM | – | 22.8 µM (inactive) | 25.5 µM (inactive) | > 100 µM (inactive) | 19.3 µM (inactive) | 23.4 µM (inactive) | 19.3 µM (inactive) | 23.2 µM (inactive) | 18 µM (inactive) | 17.9 µM (inactive) | 26.6 µM (inactive) | 17.3 µM (inactive) | 16.3 µM (inactive) | 19.3 µM (inactive) | 16.1 µM (inactive)
CN(C)Cc1cc(C(=O)/C=C/c2ccc(Cl)cc2)cc(CN(C)C)c1O | 5.93 µM (inactive) | 8.73 µM (inactive) | 6.05 µM (inactive) | 15.9 µM | 5.6 µM (inactive) | 17.5 µM (inactive) | 14.4 µM (inactive) | 16.3 µM (inactive) | 24.2 µM (inactive) | 7.59 µM (inactive) | 10.9 µM (inactive) | 18.2 µM (inactive) | 13.3 µM (inactive) | 11.4 µM (inactive) | – | 10.8 µM (inactive) | 6.65 µM (inactive) | – | 14.4 µM (inactive)
